Patent US20230313181A1, “HISTIDINE-LYSINE POLYMERS AND METHODS FOR DELIVERING MRNA USING THE SAME” (UNIVERSITY OF MARYLAND, BALTIMORE, priority 2019, published 2023)
Bridges are numbered along the chain shown (N, C = ends). Roman numbers before positions name the chains, in order. Where no end group is shown, it is not given here.

How the values were obtained:
[1] = Cell viability assay (trypan blue exclusion); type: cell-based; settings: human, MDA-MB-231 cells, HK polymer 4 μg or polyplex (4 μg HK; 1 μg mRNA), then 19 h DMEM/10% FBS
Experimental: Cell Viability Assay. MDA-MB-231 cells were seeded at 5.0×10^4/well in a 24-tissue culture plate and incubated overnight in DMEM supplemented with 10% FBS serum. The media was then changed to Opti-MEM and the cells were treated with either the HK polymer (4 μg) or the HK polyplex (4 μg HK; 1 μg mRNA) for 5 h. After the media was changed to DMEM/10% FBS for 19 h, the cell viability was measured using the trypan blue cell exclusion assay (Trypan Blue solution, 0.4%, Sigma-Aldrich, St. Louis, MO).
After the medium was changed to Opti-MEM in cell cultures of the MDA-MB-231 cells used in the experiment described above, either the HK polymer (4 μg) or the HK polyplex (4 μg HK; 1 μg mRNA) was added dropwise to the cells and incubated for 5 h. The media was then changed to DMEM/10% FBS for 19 h and cell viability was determined using the trypan cell exclusion assay.

cytokines = settings: in vitro and in vivo; prior study [45]; cited from earlier work
[2] = prior studies [34, 35, 45]; cited from earlier work
MDA-MB-231 cells = assay: In vitro mRNA transfection with HK polyplexes (luciferase mRNA, luciferase activity); type: cell-based; settings: mRNA 1 μg, 24 h
Experimental: FIG. 1. Comparison of H3K(+H)4b and H3K4b peptides as carriers of mRNA. To form the HK polyplexes, the mRNA (1 μg) was mixed with 3 different ratios of the HK ([…]) polymer for 30 minutes. The HK polyplexes were then added to the cells for 24 h before the luciferase activity was measured. ****, H3K(+H)4b vs H3K4b, P<0.0001.
In vitro mRNA Transfection. Several HK polymers were examined for their ability to carry a luciferase-expressing mRNA (CleanCap Firefly Luciferase mRNA, Trilink Biotechnologies, Inc, San Diego, CA) into MDA-MB-231 cells (America Type Tissue Culture, Manassas, VA). In brief, 3×10^4 cells were plated into a 24-well plate containing 500 μl of DMEM and 10% fetal bovine serum (ThermoFisher Scientific, Waltham, MA). After 24 h, when the cells were 60 to 80% confluent, the media in each well was changed to Opti-MEM (ThermoFisher Scientific). To prepare HK polyplexes, mRNA (1 μg) in 50 μl of Opti-MEM was briefly mixed well with one of the HK polymers (4 to 12 μg) and maintained at room temperature for 30 min. This polyplex was then added dropwise to the cells. After four h, the Opti-MEM media was removed and replaced with 0.5 ml of DMEM/10% serum (0.5 ml). Twenty-four hours later, the cells were lysed, and the luciferase activity (Promega Corporation, Madison, WI) was measured.
To obtain the data in Table 4, luciferase-expressing mRNA (1 μg) in 50 μl of Opti-MEM was briefly mixed with one of the HK polymers (4, 8, or 12 μg) and maintained at room temperature for 30 min. The resulting polyplexes were added dropwise to the MDA-NM-231 cells and after four h, the Opti-MEM media was removed and replaced with DMEM/10% serum. Twenty-four hours later, the cells were lysed, and the luciferase activity was measured

[3] = Particle size, polydispersity index (PDI) and zeta potential of polyplexes (Zetasizer); type: physicochemical
Experimental: Particle size, polydispersity index (PDI), and zeta potential. The size, PDI, and zeta potential were determined with the Zetasizer (Malvern, Westborough, Mass.) and analyzed with software provided by the instrument manufacturer (Zetasizer software, version 6.2). Using dynamic light scattering at a 90° angle, the size of the particles were reported as the Z-average diameter from the intensity-weighted size distribution. Prior to the measurements, the samples were equilibrated to 25° C. for 2 min. Each measurement had at least ten sub-runs under the automatic mode of the software. The particle size, PDI, and zeta potential data point represent the mean±SD of three measurements. After mixing HK peptides (4 μg) and mRNA (1 μg) in 100 μl of defined media (Opti-MEM, water, or DMEM/8% FBS) for 30 min, 100 μl of additional defined media was added to the polyplex solution (total volume 200 μl) to measure the size and PDI. To determine the zeta potential, 800 μl more of the media was added (total volume 1000 μl), mixed gently, and then added to the disposable zeta cell.
Because different stabilities were observed between the H3K4b and H3K(+H)4b polyplexes, whether the sizes of these polyplexes varied based on the media in which they were prepared was investigated. […] H3K(+H)4b and H3K4b peptides (4 μg) in complex with mRNA (1 μg) were mixed with either Opti-MEM, water, or DMEM/8% FBS […]. After 1 h, the size, PDI, and zeta potential were measured.

mRNA = assay: Heparin displacement assays (gel electrophoresis and Sybr Gold dye intercalation); type: physicochemical; settings: HK:mRNA 4:1 wt/wt
Experimental: FIG. 4. Heparin Displacement Assays. After HK polyplexes were formed (wt:wt; HK:mRNA; 4 μg:1 μg), different concentrations of heparin […] were incubated with these for 30 min. A. Gel Retardation. The HK polyplexes were loaded on the agarose gel (1%), and electrophoresis was carried out and stained with Sybr Gold. B. Fluorescent dye intercalation. After the HK polyplexes were formed and incubated with several concentrations of heparin, the Sybr Gold nucleic acid dye was incubated with the HK polyplexes for 5 mins. Fluorescence was then measured by a microplate fluorimeter (λex=497 nm, λem=520 nm) (SynergyMx, BioTek). *, P<0.05; ***, P<0.001; H3K4b or H2K vs. H3K(+H)4b.
Heparin Displacement Assays. Heparin displacement assays of HK polyplexes were done with the dye intercalation assay and with gel electrophoresis. A fluorescent assay assessed polyplexes of HK polymer and mRNA (4:1 wt/wt ratio; polymer:mRNA) formed in RNAse/DNAase free water (Corning, Manassas, VA). HK polyplexes were prepared as described previously, followed by the addition of diluted Syber Gold. For detection, working dilutions of the polyplexes (1/5 of volume), water (3/5) and Sybr Gold dye (1/5, 0.2×) were incubated for 5 minutes, and fluorescence was measured by a fluorimeter (Ex=497 nm, Em=520 nm) (SynergyMx, BioTek, Winooski, VT). The control sample was prepared with the same amount of mRNA, water, and Sybr Gold dye. For the heparin displacement, instead of water, heparin salt (Sigma-Aldrich, St. Louis, MO) solutions at different concentrations (0.5, 1, 1.5, 2, 3 μg/μl) were used, and the HK polyplexes were incubated at 37° C. for 30 min before addition of Sybr Gold.
Displacement of mRNA from HK polyplexes with heparin was also done with gel electrophoresis. After HK polyplexes were formed, different concentrations of heparin (0.5, 1.0, 1.5, 2.0, 3.0 μg/μl; volume 20 μl) were incubated with these at 37° C. for 30 min. The polyplexes were then loaded on the agarose gel (1%; 10× BlueJuice Gel loading buffer), and electrophoresis was carried out and stained with SG as described above. […]

[4] = Acid-base titration of HK polymer solutions; type: physicochemical; settings: pH titration curves, 5 mg/ml
Experimental: FIG. 2. Titration of different HK peptide solutions. Solutions of polymers (5 mg/ml) (H2K4b, H3K4b, H3K(+H)4b, and H4K4b) were adjusted to pH 3 (initial volume—1 ml) and then […] aliquots of 0.05 N NaOH were stepwise added and the pH measured.
Acid-Base Titration. After polymer solutions (e.g. containing one or more of H2K4b, H3K4b, H3K(+H)4b, and H4K4b) were adjusted to pH 3.0 (5 mg/mil; initial volume—1 mil), aliquots (5 μl) of NaOH (0.05 N) were stepwise added with the pH measured (FiveEasy™ meter; InLab Solids Pro-ISM pH electrode, Mettler Toledo, Columbus, OH). Titration was stopped at about pH 9.0.

[5] = polyplex HK 4 μg:mRNA 1 μg in DMEM/8% FBS
[6] = polyplex HK 4 μg:mRNA 1 μg in Opti-MEM
[7] = polyplex HK 4 μg:mRNA 1 μg in Water

In the case of “I: KHHHKHHHKHHHKHHHKKKK-NH2 / II: KHHHKHHHKHHHKHHHK / III: KHHHKHHHKHHHKHHHK / IV: KHHHKHHHKHHHKHHHK (amide I:18-IV:C, I:19-III:C, I:20-II:C) [H3K4b]”, the viability at 5 h [1] is listed as 95.6%, the “cytokine induction by siRNA polyplex (in words)” value (cytokines) is listed as “induced cytokines to a significantly greater degree” and the “carrier of siRNA (in words)” value [2] is listed as “effective carriers of siRNA”. For the same substance, the “RLU/μg-Protein (luciferase activity)” value (MDA-MB-231 cells; ratio mRNA:polymer 1:4 (wt:wt)) was 156.8 ± 41.8 RLU/μg-Protein, the “RLU/μg-Protein (luciferase activity)” value (MDA-MB-231 cells; ratio mRNA:polymer 1:8 (wt:wt)) was 62.1 ± 13.2 RLU/μg-Protein and the “RLU/μg-Protein (luciferase activity)” value (MDA-MB-231 cells; ratio mRNA:polymer 1:12 (wt:wt)) was 18.1 ± 4.0 RLU/μg-Protein. For the same substance, the PDI [3, 5] was 0.421, the Size [3, 5] was 578 ± 80.5 nm and the “Zeta Potential” value [3, 5] was −12.1 ± 2.22 mV. For the same substance, the PDI [3, 6] was 0.466, the Size [3, 6] was 2030.7 ± 117.3 nm and the “Zeta Potential” value [3, 6] was −4.20 ± 2.78 mV. For the same substance, the PDI [3, 7] was 0.171, the Size [3, 7] was 199.9 ± 0.8 nm and the “Zeta Potential” value [3, 7] was 16.47 ± 0.74 mV. The “binding/release of mRNA and polyplex stability on exposure to heparin (in words)” value (mRNA) was “released by the H3K4b polymer more readily than the H3K(+H)4b polymer” and the “buffering profile / buffering capacity (in words)” value [4] was “minimal differences in their buffering profile”.
